Laboratory results published in ChEMBL document CHEMBL1201862, “PubChem BioAssay data set” (2004).
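Cells were grown in 96-well plates and exposed to each compound for 48 hours at five concentrations; endpoints were interpolated linearly between bracketing concentrations, or set to the highest concentration if not reached. GI50 is the concentration that inhibits growth by half.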 Activity calls are given as the source filed them. Cut-off read from the data, not from the text of the source: active = GI50 up to about 1.1 µM and inactive = higher.

How the values were obtained:
Assay in all cases: NCI tumour cell line growth inhibition, 48 h
[1] = tested on: UACC-257
[2] = tested on: NCI-H226
[3] = tested on: NCI-H23
[4] = tested on: OVCAR-8
[5] = tested on: CAKI-1
[6] = tested on: OVCAR-3
[7] = tested on: A549
[8] = tested on: SF-295
[9] = tested on: NCI/ADR-RES
[10] = tested on: EKVX
[11] = tested on: HCT-15
[12] = tested on: ACHN
[13] = tested on: OVCAR-5
[14] = tested on: A498
[15] = tested on: RPMI-8226
[16] = tested on: MDA-MB-435
[17] = tested on: K562
[18] = tested on: KM12
[19] = tested on: RXF 393
[20] = tested on: SK-MEL-28
[21] = tested on: T47D
[22] = tested on: HOP-62
[23] = tested on: TK-10
[24] = tested on: SF-268
[25] = tested on: 786-0
[26] = tested on: COLO 205
[27] = tested on: Hs-578T
[28] = tested on: MDA-MB-231
[29] = tested on: DU-145
[30] = tested on: HOP-92
[31] = tested on: SNB-19
[32] = tested on: PC-3
[33] = tested on: BT-549
[34] = tested on: SR
[35] = tested on: Malme-3M
[36] = tested on: SK-OV-3
[37] = tested on: SK-MEL-5
[38] = tested on: NCI-H460
[39] = tested on: IGROV-1
[40] = tested on: HT-29
[41] = tested on: HCT-116
[42] = tested on: HCC 2998
[43] = tested on: SW-620
[44] = tested on: UACC-62
[45] = tested on: SK-MEL-2
[46] = tested on: MCF7
[47] = tested on: U-251
[48] = tested on: M14
[49] = tested on: MOLT-4
[50] = tested on: CCRF-CEM
[51] = tested on: SNB-75
[52] = tested on: MDA-N
[53] = tested on: OVCAR-4
[54] = tested on: UO-31
[55] = tested on: SN12C
[56] = tested on: NCI-H522
[57] = tested on: SF-539

What does the source list for `COC(=O)[C@H](Cc1ccccc1)NC(=O)c1ccc(CNC(=O)/C=C/c2cccc(Oc3ccccc3)c2)cc1`?
GI50 [1]: 6.27 µM (inactive); GI50 [2]: 52.7 µM (inactive); GI50 [3]: 36.7 µM (inactive); GI50 [4]: 36.4 µM (inactive); GI50 [5]: 16.5 µM (inactive); GI50 [6]: 11.8 µM (inactive); GI50 [7]: > 100 µM (inactive); GI50 [8]: 44.1 µM (inactive); GI50 [9]: 31.3 µM (inactive); GI50 [10]: 30.8 µM (inactive); GI50 [11]: 6.24 µM; GI50 [12]: 16.4 µM (inactive); GI50 [13]: > 100 µM (inactive); GI50 [14]: 23.1 µM (inactive); GI50 [15]: 28.3 µM (inactive); GI50 [16]: 5.35 µM (inactive); GI50 [17]: 7.08 µM (inactive); GI50 [18]: 40.8 µM (inactive); GI50 [19]: 7.31 µM (inactive); GI50 [20]: 9.33 µM (inactive); GI50 [21]: 56 µM (inactive); GI50 [22]: 77.3 µM (inactive); GI50 [23]: 24.8 µM (inactive); GI50 [24]: 14.6 µM (inactive); GI50 [25]: 17.3 µM (inactive); GI50 [26]: 21.3 µM (inactive); GI50 [27]: 10.4 µM (inactive); GI50 [28]: 18.7 µM (inactive); GI50 [29]: 40.6 µM (inactive); GI50 [30]: 5.31 µM (inactive); GI50 [31]: 28 µM (inactive); GI50 [32]: 29.4 µM (inactive); GI50 [33]: > 100 µM (inactive); GI50 [34]: 6.79 µM (inactive); GI50 [35]: 15.1 µM (inactive); GI50 [36]: 53.5 µM (inactive); GI50 [37]: 16.3 µM (inactive); GI50 [38]: 24.9 µM (inactive); GI50 [39]: 7.31 µM (inactive); GI50 [40]: 61.8 µM (inactive); GI50 [41]: 37 µM (inactive); GI50 [42]: 35.4 µM (inactive); GI50 [43]: 9.98 µM (inactive); GI50 [44]: 7.91 µM (inactive); GI50 [45]: 10.3 µM (inactive); GI50 [46]: 12.8 µM (inactive); GI50 [47]: 18.3 µM (inactive); GI50 [48]: 11.9 µM (inactive); GI50 [49]: 9.71 µM (inactive); GI50 [50]: 11 µM (inactive); GI50 [51]: 34.8 µM (inactive); GI50 [52]: 4.16 µM (inactive); GI50 [53]: 34.4 µM (inactive); GI50 [54]: 26.7 µM (inactive); GI50 [55]: 26.1 µM (inactive)

What does the source list for `CC(=O)N1C(=O)/C(=C\C(=O)c2ccc([N+](=O)[O-])cc2)c2ccccc21`?
GI50 [1]: 19 µM (inactive); GI50 [2]: > 100 µM (inactive); GI50 [3]: 28.9 µM (inactive); GI50 [4]: 47.5 µM (inactive); GI50 [5]: 22.5 µM (inactive); GI50 [6]: 16.7 µM (inactive); GI50 [7]: > 100 µM (inactive); GI50 [8]: > 100 µM (inactive); GI50 [9]: 44.4 µM (inactive); GI50 [10]: 19.6 µM (inactive); GI50 [11]: 15 µM; GI50 [12]: 15.3 µM (inactive); GI50 [13]: 54.2 µM (inactive); GI50 [14]: > 100 µM (inactive); GI50 [16]: 25.6 µM (inactive); GI50 [17]: 9.18 µM (inactive); GI50 [56]: 15.7 µM (inactive); GI50 [18]: 19.6 µM (inactive); GI50 [19]: 29.1 µM (inactive); GI50 [21]: 20.5 µM (inactive); GI50 [22]: 36.4 µM (inactive); GI50 [23]: 13.1 µM (inactive); GI50 [24]: 22.6 µM (inactive); GI50 [25]: 15.5 µM (inactive); GI50 [26]: 18.8 µM (inactive); GI50 [27]: 22.2 µM (inactive); GI50 [28]: 35.3 µM (inactive); GI50 [29]: 67 µM (inactive); GI50 [31]: 43.2 µM (inactive); GI50 [32]: 21.8 µM (inactive); GI50 [33]: 20.9 µM (inactive); GI50 [34]: 3.61 µM (inactive); GI50 [57]: 14.4 µM (inactive); GI50 [35]: 20.7 µM (inactive); GI50 [36]: > 100 µM (inactive); GI50 [37]: 35 µM (inactive); GI50 [38]: 20.1 µM (inactive); GI50 [39]: 21.4 µM (inactive); GI50 [40]: 17.8 µM (inactive); GI50 [41]: 18 µM (inactive); GI50 [42]: 19.3 µM (inactive); GI50 [44]: 18.4 µM (inactive); GI50 [45]: > 100 µM (inactive); GI50 [46]: 21.3 µM (inactive); GI50 [47]: 21.1 µM (inactive); GI50 [48]: 31 µM (inactive); GI50 [49]: 19.5 µM (inactive); GI50 [50]: 3.94 µM (inactive); GI50 [51]: 21.9 µM (inactive); GI50 [52]: 18.8 µM (inactive); GI50 [53]: 14.4 µM (inactive); GI50 [54]: 19 µM (inactive); GI50 [55]: 16.8 µM (inactive)
